Experimental data: patent US4554273A, “2-Amino-5-phenyl-1,3-benzodiazepines” (Lipha Lyonnaise Industrielle Pharmaceutique, priority 1983, dated 1985)
Where a name gives a salt, the structure may show the parent alone.

What was measured:
[1] = lethal dose (LD50) determined orally in Swiss mice; details: mouse, in vivo, oral
Reserpine ptosis = experiment: inhibition of reserpine ptosis (oral); format: in vivo; details: Mus musculus, 1.5 h, Swiss mice, reserpine 5 mg/kg intraperitoneal, compounds orally at the same time, ptosis marked 1 h 30 min later
Description: The mood-modifying activity of the compounds is evaluated by standardized tests such as inhibition of known reserpine ptosis. Reserpine ptosis may be induced by methods such as those described in the literature. For example, Rubin, et al, [J. Pharmacol, Exp. Ther. 120: 125(1957)] induced ptosis in Swiss mice by intraperitoneal injection of 5 mg/kg of reserpine. This ptosis was marked 1 h 30 min later. Compounds to be tested for reserpine inhibition were administered orally at the same time as the reserpine was injected.

Q: For `Cc1ccc(C2CNC(N)=Nc3ccccc32)cc1` (centres unmarked) [Example 3, 2-Amino-5-(4-methylphenyl)-4,5-3H-hydro-1,3-benzodiazepine hydrochloride], which LD50 [1] is on record?
A: 330 mg/kg

Q: What about the ED50 (Reserpine ptosis) of the same compound?
A: 10 mg/kg

Q: What does the source list for `NC1=Nc2ccccc2C(c2ccc(Cl)cc2)CN1` (centres unmarked) [Example 4, 2-Amino-5-(4-chlorophenyl)-4,5-3H-dihydro-1,3-benzodiazepine hydrochloride]?
A: LD50 [1]: 1200 mg/kg; ED50 (Reserpine ptosis): 11 mg/kg

Q: Which results are given for `Cc1ccc(C2CNC(N)=Nc3ccc(C)cc32)cc1` (centres unmarked) [Example 8, 2-Amino-7-methyl-5-(4-methylphenyl)-4,5-3H-dihydro-1,3-benzodiazepine hydrochloride]?
A: LD50 [1]: 2400 mg/kg; ED50 (Reserpine ptosis): 3 mg/kg

Q: Which LD50 [1] does the source give for `CCOC(=O)NC1=Nc2ccccc2C(c2ccccc2)CN1` (centres unmarked) [Example 48, 2-amino-(5-Phenyl-4,5-3H-dihydro-1,3-benzodiazepin)yl ethyl carbamate] here?
A: > 3200 mg/kg

Q: What about the ED50 (Reserpine ptosis) of the same compound?
A: 13 mg/kg

Q: What does the source list for `NC1=Nc2ccccc2C(c2ccccc2)CN1` (centres unmarked) [Example 1, 2-Amino-5-phenyl-4,5-3H-dihydro-1,3-benzodiazepine hydrochloride]?
A: LD50 [1]: 600 mg/kg; ED50 (Reserpine ptosis): 18 mg/kg

Q: For `CN(C)CCC=C1c2ccccc2CCc2ccccc21` [AMITRIPTYLINE, 5-(3-dimethylaminopropylidene)dibenzo[a,d]-1,4-cycloheptadiene hydrochloride, reference compound], which ED50 (Reserpine ptosis) is on record?
A: 10 mg/kg
